From patent publication EP4782453A1 (Beyang Therapeutics Co., Ltd., priority 2023, dated 2025)
Read-outs that look alike come from different tables or passages of the source.

Columns and labels:
[1] = test system: MV-4-11 (carrying MLL-AF4); experiment: Inhibition of proliferation of human tumor cells (Alamar Blue, 7 days), MV-4-11; format: cell-based; settings: MV-4-11 cells (carrying MLL-AF4), method calls the value GI50
Excerpt: Experimental Example 2: Evaluation of Inhibitory Activity of Compounds Against Proliferation of Human Tumor Cells
• Human acute lymphoblastic leukemia cells MV-4-11, purchased from American Type Culture Collection, Catalog Number: CRL-9591; • Human acute myeloid leukemia cells MOLM-13, purchased from COBIOER BIOSCIENCES CO., LTD, Catalog Number: CBP60678; • Human acute myeloid leukemia cells KG-1a, purchased from American Type Culture Collection, Catalog Number: CCL-246.1; • Inverted Microscope, purchased from Olympus Tokyo; • Countess™ Automated Cell Counter, purchased from Invitrogen, Model: C10281; and • Multilabel Reader, purchased from Bio-Tek, Model: Synergy HT.
MV-4-11 cells were cultured in an IMDM medium containing 10% fetal bovine serum, KG-a cells were cultured in an IMDM medium containing 20% fetal bovine serum, or MOLM-13 cells were cultured in an RPMI-1640 medium containing 20% fetal bovine serum, each supplemented with 100 U·mL^-1 penicillin and 100 µg·mL^-1 streptomycin. These cells were cultured at 37°C with 5% CO2. The suspensions of individual cell lines were prepared in their respective media and seeded into 96-well plates at a density of 4,000 cells/well for MV-4-11 and MOLM-13 cells, or 3,000 cells/well for KG-1a cells. On the day of the experiment, a compound stock solution was diluted in a 3-fold or 4-fold gradient using DMSO. Each gradient-diluted stock solution was then further diluted 250-fold with a complete medium to prepare a series of working solutions at different concentrations. Subsequently, 100 µL of working solution (containing a 2-fold concentration series of the test compound) was added to each well, with duplicate wells set up for each concentration.
Seven days after compound addition (on Day 7), an Alamar Blue assay reagent (MCE, HY-111391 / CS-0040317) was added to measure the fluorescence intensity in each well. Wells containing the cells in the growth medium supplemented with 0.1% DMSO (Day 7) served as high-read control wells. The readouts from the wells containing the cells in the growth medium supplemented with 0.1% DMSO on the day of compound addition (Day 0) served as low-reading control well. GraphPad Prism software was used to calculate the concentration required to inhibit 50% of cell proliferation (GI50), which serves as a cell proliferation inhibition activity index.

[2] = target: T1, Menin-MLL (Homo sapiens, UniProt O00255); experiment: Inhibitory activity against Menin-MLL binding (fluorescence polarization); settings: 150 nM His-Menin, 15 nM FITC-MLL, 25°C for 60 min
T1 construct: His-Menin (M1-L615 end); purchased BIORTUS BP9210
T1 sequence (O00255 1-615 isoform O00255-1): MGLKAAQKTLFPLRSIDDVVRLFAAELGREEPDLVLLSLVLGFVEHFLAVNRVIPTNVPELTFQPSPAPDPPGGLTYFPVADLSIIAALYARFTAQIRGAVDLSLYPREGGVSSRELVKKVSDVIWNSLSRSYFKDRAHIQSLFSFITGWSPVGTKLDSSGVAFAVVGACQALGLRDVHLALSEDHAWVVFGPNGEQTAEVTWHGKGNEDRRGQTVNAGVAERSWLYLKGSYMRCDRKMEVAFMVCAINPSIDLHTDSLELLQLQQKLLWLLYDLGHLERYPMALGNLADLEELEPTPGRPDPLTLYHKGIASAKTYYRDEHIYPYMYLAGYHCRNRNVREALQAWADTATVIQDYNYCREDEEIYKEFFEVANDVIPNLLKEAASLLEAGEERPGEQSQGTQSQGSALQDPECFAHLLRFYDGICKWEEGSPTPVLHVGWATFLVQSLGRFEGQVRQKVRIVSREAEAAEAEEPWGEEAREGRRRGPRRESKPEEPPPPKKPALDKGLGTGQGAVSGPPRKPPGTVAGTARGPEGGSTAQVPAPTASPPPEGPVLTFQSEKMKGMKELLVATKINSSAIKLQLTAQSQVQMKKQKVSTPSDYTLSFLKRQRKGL
Method in brief: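 Fluorescence polarization competition: compound and 150 nM His-tagged menin (residues M1-L615) sit 15 min at 25 °C in pH 7.5 HEPES buffer with NaCl, DTT and BSA; 15 nM FITC-labelled MLL peptide then binds for 60 min. IC50 fitted sigmoidally from mP values, duplicate wells.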

[3] = test system: MOLM-13 (carrying MLL-AF9); experiment: Inhibition of proliferation of human tumor cells (Alamar Blue, 7 days), MOLM-13; format: cell-based; settings: MOLM-13 cells (carrying MLL-AF9), method calls the value GI50
Method in brief: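 Suspension cells were plated, dosed the same day with a graded compound series, and incubated seven days at 37°C under 5% CO2. Growth was then measured by Alamar Blue fluorescence, and the concentration halving proliferation (GI50) was calculated relative to Day 0 and Day 7 vehicle controls.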

[4] = fluorescence polarization, read-out: Menin-MLL IC50
[5] = Menin-MLL IC50, fluorescence polarization

CO[C@@H]1CN(CCC[C@H](C(C)C)N2CC(c3cc(-c4ccc(F)cc4C(=O)N4CCOC[C@H]4C)c4c(F)nc(C)n4c3)C2)C[C@H]1O (relative stereo) [Example 291, (3r,4r)-1-[(4R)-4-[3-(1-fluoro-8-{4-fluoro-2-[(3R)-3-methylmorpholin-4-carbonyl]phenyl}-3-methylimidazo[1,5-a]pyridin-6-yl)azacyclobutan-1-yl]-5-methylhexyl]-4-methoxypyrrolidin-3-ol]
IC50 ([1]; Homo sapiens, MV4-11, 168 h): 0.0016 µM
IC50 [2, 4]: 0.003 µM
IC50 ([3]; Homo sapiens, 168 h): 0.007 µM

CCN(C(=O)c1cc(F)ccc1-c1cc([C@H]2CCN(C[C@]3(O)CC[C@H](NS(=O)(=O)CC)CC3)C2)cc2c1cnn2C)C(C)C [Compound 55-1-1, N-ethyl-5-fluoro-2-[1-methyl-6-[(3R)-1-{[(1r,4s)-4-ethanesulfonamido-1-hydroxylcyclohexyl]methyl}pyrrolidin-3-yl]-1H-indazol-4-yl]-N-(isopropyl)benzamide]
IC50 [1]: 0.0185 µM
IC50 [2, 4]: 0.014 µM
IC50 [3]: 0.044 µM

CCN(C(=O)c1cc(F)ccc1-c1cc(C2CN(C[C@H]3CC[C@H](NS(=O)(=O)CC)CC3)C2)cn2c(C)ncc12)C(C)C [Example 120, N-ethyl-5-fluoro-2-[3-methyl-6-(1-{[(1r,4r)-4-ethanesulfonamidocyclohexyl]methyl}-azacyclobutan-3-yl)imidazo[1,5-a]pyridin-8-yl]-N-(isopropyl)benzamide]
IC50 ([1]; Homo sapiens, MV4-11, 168 h): 0.0085 µM
IC50 [2, 5]: 0.0085 µM
IC50 ([3]; Homo sapiens, MOLM-13, 168 h): 0.0295 µM

C=C1C[C@@H]2CC[C@H]1[C@@H](C(=O)N1CC(c3cc(-c4ccc(F)cc4C(=O)N(CC(F)F)C(C)C)c4cnc(C)n4c3)C1)N2 [Example 121, N-(2,2-difluoroethyl)-5-fluoro-2-(3-methyl-6-{1-[(1S,3S,4R)-5-methylene-2-azabicyclo[2.2.2]octan-3-carbonyl]azacyclobutan-3-yl}imidazo[1,5-a]pyridin-8-yl)-N-(isopropyl)benzamide]
IC50 ([1]; Homo sapiens, MV4-11, 168 h): 0.042 µM
IC50 [2, 4]: 0.0235 µM
IC50 ([3]; Homo sapiens, 168 h): 0.128 µM

CCS(=O)(=O)N[C@H]1CC[C@H](CN2CCC(c3cc(-c4ccc(F)cc4C(=O)N(CC(F)F)C(C)C)c4cnc(C)n4c3)CC2)CC1 [Example 128]
IC50 ([1]; Homo sapiens, MV4-11, 168 h): 0.056 µM
IC50 [2, 5]: 0.037 µM
IC50 ([3]; Homo sapiens, MOLM-13, 168 h): 0.03 µM

Cc1nc(F)c2c(-c3ccc(F)cc3C(=O)N(CC(F)F)C(C)C)cc(C3CN(C(=O)[C@@H]4CCCCN4)C3)cn12 [Example 131, N-(2,2-difluoroethyl)-5-fluoro-2-(1-fluoro-3-methyl-6-{1-[(2S)-piperidin-2-carbonyl]azacyclobutan-3-yl}imidazo[1,5-a]pyridin-8-yl)-N-(isopropyl)benzamide]
IC50 ([1]; Homo sapiens, MV4-11, 168 h): 0.05 µM
IC50 [2, 4]: 0.0155 µM
IC50 ([3]; Homo sapiens, 168 h): 0.04 µM

CCS(=O)(=O)N[C@H]1CC[C@H](CN2CC(c3cc(-c4ccc(F)cc4C(=O)N(CC(F)F)C(C)C)c4c(F)nc(C)n4c3)C2)CC1 [Example 132, N-(2,2-difluoroethyl)-5-fluoro-2-[1-fluoro-3-methyl-6-(1-{[(1r,4r)-4-ethanesulfonamidocyclohexyl]methyl}-azacyclobutan-3-yl)imidazo[1,5-a]pyridin-8-yl]-N-(isopropyl)benzamide]
IC50 ([1]; Homo sapiens, MV4-11, 168 h): 0.017 µM
IC50 [2, 5]: 0.006 µM
IC50 ([3]; Homo sapiens, MOLM-13, 168 h): 0.016 µM

Cc1ncc2c(-c3ccc(F)cc3C(=O)N(CC(F)F)C(C)C)cc(C3CN(C(=O)[C@@H]4CCCCN4)C3)cn12 [Example 133]
IC50 ([1]; Homo sapiens, MV4-11, 168 h): 0.049 µM
IC50 [2, 4]: 0.03 µM
IC50 ([3]; Homo sapiens, 168 h): 0.031 µM

CCS(=O)(=O)N[C@H]1CC[C@H](CN2CCC(c3cc(-c4ccc(F)cc4C(=O)N(CC(F)F)C(C)C)c4cnccn34)CC2)CC1 [Example 139, N-(2,2-difluoroethyl)-5-fluoro-N-(isopropyl)-2-[6-(1-{[(1r,4r)-4-ethanesulfonamidocyclohexyl]methyl}piperidin-4-yl)pyrrolo[1,2-a]pyrazin-8-yl]benzamide]
IC50 ([1]; Homo sapiens, MV4-11, 168 h): 0.044 µM
IC50 [2, 5]: 0.042 µM
IC50 ([3]; Homo sapiens, MOLM-13, 168 h): 0.096 µM

CNCCCC(C(C)C)N1CC(c2cc(-c3ccc(F)cc3C(=O)N(CC(F)F)C(C)C)c3cnccn23)C1 (stereo not drawn) [Example 146, N-(2,2-difluoroethyl)-5-fluoro-2-(6-{1-[2-methyl-6-(methylamino)hexan-3-yl]azacyclobutan-3-yl}pyrrolo[1,2-a]pyrazin-8-yl)-N-(isopropyl)benzamide]
IC50 ([1]; Homo sapiens, MV4-11, 168 h): 0.089 µM
IC50 [2, 4]: 0.046 µM

CCN(C(=O)c1cc(F)ccc1-c1cc(C2CN(C(CCCN3CCNC(CC#N)C3)C(C)C)C2)cn2c(C)ncc12)C(C)C (stereo not drawn) [Example 498]
IC50 [2, 5]: 0.0028 µM
IC50 ([3]; Homo sapiens, MOLM-13, 168 h): 0.023 µM

CCN(C(=O)c1cc(F)ccc1-c1cc(C2CN(C(CCCN3CCNC(CC#N)C3)C(C)C)C2)cn2c(C)ncc12)C(C)C (stereo not drawn) [Example 499]
IC50 [2, 5]: 0.0021 µM
IC50 [3]: 0.029 µM

CCN(C(=O)c1cc(F)ccc1-c1cc(C2CN([C@H](CCCN3CCN[C@@H](COC)C3)C(C)C)C2)cn2c(C)ncc12)C(C)C [Example 502]
IC50 [2, 4]: 0.0009 µM
IC50 ([3]; Homo sapiens, 168 h): 0.0098 µM

CCN(C(=O)c1cc(F)ccc1-c1cc(C2CN([C@H](CCCN3CCN[C@H](COC)C3)C(C)C)C2)cn2c(C)ncc12)C(C)C [Example 503]
IC50 [2, 4]: 0.001 µM
IC50 ([3]; Homo sapiens, 168 h): 0.0085 µM

COC[C@H]1CN(CCC[C@H](C(C)C)N2CC(c3cc(-c4ccc(F)cc4C(=O)N(C(C)C)C(C)C)c4cnc(C)n4c3)C2)CCN1 [Example 504-2, 5-fluoro-2-(6-{1-[(3R)-6-[(3R)-3-(methoxymethyl)piperazin-1-yl]-2-methylhexan-3-yl]azacyclobutan-3-yl}-3-methylimidazo[1,5-a]pyridin-8-yl)-N,N-di(isopropyl)benzamide]
IC50 [2, 4]: 0.0012 µM
IC50 ([3]; Homo sapiens, 168 h): 0.013 µM

COC[C@@H]1CN(CCC[C@H](C(C)C)N2CC(c3cc(-c4ccc(F)cc4C(=O)N(C(C)C)C(C)C)c4cnc(C)n4c3)C2)CCN1 [Example 505-2]
IC50 [2, 4]: 0.001 µM
IC50 ([3]; Homo sapiens, 168 h): 0.0099 µM

CCN(C(=O)c1cc(F)ccc1-c1cc(C2CN([C@H](CCCN3CCN(C)[C@@H](CO)C3)C(C)C)C2)cn2c(C)ncc12)C(C)C [Example 506]
IC50 [2, 4]: 0.0009 µM
IC50 ([3]; Homo sapiens, 168 h): 0.013 µM

CCN(C(=O)c1cc(F)ccc1-c1cc(C2CN([C@H](CCCN3CCN(C)[C@H](CO)C3)C(C)C)C2)cn2c(C)ncc12)C(C)C [Example 507]
IC50 [2, 4]: 0.001 µM
IC50 ([3]; Homo sapiens, 168 h): 0.015 µM

CCN(C(=O)c1cc(F)ccc1-c1cc(C2CN(C(CCCN3CCN(C)C(COC)C3)C(C)C)C2)cn2c(C)ncc12)C(C)C (stereo not drawn) [Example 508]
IC50 [2, 4]: 0.0011 µM
IC50 ([3]; Homo sapiens, 168 h): 0.011 µM

CCN(C(=O)c1cc(F)ccc1-c1cc(C2CN([C@H](CCCN3CCN(C)[C@H](COC)C3)C(C)C)C2)cn2c(C)ncc12)C(C)C [Example 509]
IC50 [2, 4]: 0.0011 µM
IC50 ([3]; Homo sapiens, 168 h): 0.0072 µM

CCN(C(=O)c1cc(F)ccc1-c1cc(C2CN([C@H](CCCN(C)CCOC)C(C)C)C2)cn2c(C)ncc12)C(C)C [Example 510]
IC50 [2, 4]: 0.0009 µM
IC50 ([3]; Homo sapiens, 168 h): 0.0099 µM
